Data on one compound can be found in patent publication US20260174762A1, “OLCEGEPANT FOR TREATING SEPSIS” (Boehringer Ingelheim International GmbH, priority 2022, published 2026).

Experiment [1] concerns CLP-induced polymicrobial sepsis. Description: Chronic model of CLP: survival rate. The class given is in vivo, mouse. The settings on record: 30 mg/kg s.c. 2 h after CLP induction and once daily from day 1 to day 6; 10 mice per group. Here is the method:
Two models were performed: • A cute model of CLP lasting 24 h to measure vascular hyper-permeability in lung, liver, kidney and heart tissue. The vascular hyper-permeability was followed by the extravasation of Evans blue injected intravenously and diffused and accumulated into the tissue. The vascular hyper-permeability was expressed as μg of Evans blue in 100 mg of dry tissue. • Chronic model of CLP lasting 8 days. CLP is performed on day 0 and the survival rate is followed for 8 consecutive days
On day 0, mice were anesthetized with ketamine (80 mg kg^−1, i.p.) and xylazine (10 mg kg^−1, i.p.). A 1-1.5 cm abdominal midline incision was made, and the caecum was located and tightly ligated at half the distance between distal pole and the base of the caecum with 4-0 silk suture (mild grade). The caecum was punctured through-and-through once with a 21-gauge needle after medium ligation. A small amount of stool was extruded to ensure that the wounds were patent. Then the cecum was replaced in its original position within the abdomen, which was closed with sutures in layers. For negative control animals, a sham surgery was performed: sham-operated animals underwent identical laparotomy but without cecal ligation or puncture. The animals were resuscitated immediately after surgery with 1 mL subcutaneous normal saline and returned to their cages. […]

The subject of experiment [2] is mouse CLP model. Particulars: WO 2018/154015, cited from earlier work.
Experiment [3] relates to pig sepsis model. Particulars: intravenous bolus injection; cited from earlier work.

For `NCCCC[C@H](NC(=O)[C@@H](Cc1cc(Br)c(O)c(Br)c1)NC(=O)N1CCC(N2Cc3ccccc3NC2=O)CC1)C(=O)N1CCN(c2ccncc2)CC1` [olcegepant], in experiment [1], the “survival rate at day 8” value amounted to 20%. Besides, the “mice rescued at day 4” value in experiment [2] (100 mg/kg subcutaneous twice daily, mouse CLP model) is 20%. In addition, the mice rescued in experiment [2] (subcutaneous bolus injection, mouse sepsis model) is 2 out of 10. Further, in experiment [3], the survival improvement result is recorded as “did not show any survival improvement”.
